According to patent US20070270458A1 (priority 2003, published 2007):

Biological target: α7 nAChR subtype (Rattus norvegicus, UniProt Q05941)
Type: binding

Sequence of α7 nAChR subtype (Q05941 23-502 limits assumed): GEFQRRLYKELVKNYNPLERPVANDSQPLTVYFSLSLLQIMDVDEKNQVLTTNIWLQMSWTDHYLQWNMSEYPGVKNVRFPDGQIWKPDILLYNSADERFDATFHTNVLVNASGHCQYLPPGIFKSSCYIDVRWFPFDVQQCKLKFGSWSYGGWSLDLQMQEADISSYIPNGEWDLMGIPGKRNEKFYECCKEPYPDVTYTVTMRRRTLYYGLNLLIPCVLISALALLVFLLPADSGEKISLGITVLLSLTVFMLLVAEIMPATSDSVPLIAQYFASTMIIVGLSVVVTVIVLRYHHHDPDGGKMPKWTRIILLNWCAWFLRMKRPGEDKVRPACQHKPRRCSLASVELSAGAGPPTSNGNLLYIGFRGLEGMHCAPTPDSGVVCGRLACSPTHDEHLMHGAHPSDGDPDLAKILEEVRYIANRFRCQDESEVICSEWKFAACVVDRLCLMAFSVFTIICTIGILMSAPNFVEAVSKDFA

^125I-α—Bungarotoxin [^125I-α-BTX] gave a Kd of 1.67 nM.
